Experimental data as given in ChEMBL document CHEMBL3774358 (Eur J Med Chem, 2016).

What was measured:
[1] = target: Actin nucleation-promoting factor WASL (Rattus norvegicus, UniProt O08816); test: Inhibition of full-length rat N-WASP-induced Arp2/3 activation by fluorescence assay
[2] = Inhibition of GFP-tagged Xenopus laevis kinesin-5 microtubule gliding velocity by fluorescence assay

Actin nucleation-promoting factor WASL, sequence (O08816 whole entry): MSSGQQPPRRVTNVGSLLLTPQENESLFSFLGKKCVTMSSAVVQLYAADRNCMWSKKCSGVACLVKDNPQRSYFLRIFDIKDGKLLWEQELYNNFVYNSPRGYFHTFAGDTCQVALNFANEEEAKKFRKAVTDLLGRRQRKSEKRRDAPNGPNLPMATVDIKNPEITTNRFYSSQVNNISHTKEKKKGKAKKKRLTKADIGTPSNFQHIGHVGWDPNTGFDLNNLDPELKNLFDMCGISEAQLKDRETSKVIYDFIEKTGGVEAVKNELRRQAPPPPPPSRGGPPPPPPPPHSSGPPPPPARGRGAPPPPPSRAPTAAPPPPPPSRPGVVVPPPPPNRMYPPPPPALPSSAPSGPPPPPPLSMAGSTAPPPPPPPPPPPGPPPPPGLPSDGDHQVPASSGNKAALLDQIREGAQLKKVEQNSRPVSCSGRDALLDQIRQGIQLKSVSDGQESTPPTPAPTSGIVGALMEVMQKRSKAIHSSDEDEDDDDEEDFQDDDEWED

IC50 [1] [µM]	IC50 [2] [µM]	Compound
3.44	–	CN(C)C[C@@H](O)Cn1c2ccc(Br)cc2c2cc(Br)ccc21
–	14	CCOC(=O)C1=C(C)NC(=S)NC1c1cccc(O)c1 (stereo not drawn) [MONASTROL]
4.35	–	CN(C)C[C@H](O)Cn1c2ccc(Br)cc2c2cc(Br)ccc21 [WISKOSTATIN]
